Data reported in patent US20240083897A1, “GCN2 MODULATING COMPOUNDS AND USES THEREOF” (HiberCell, Inc., priority 2021, published 2024).

biological target: GCN2 (Homo sapiens (Human), UniProt Q9P2K8); assay: TR-FRET biochemical assay for inhibition of GCN2; details: not given
Sequence (Q9P2K8 whole entry): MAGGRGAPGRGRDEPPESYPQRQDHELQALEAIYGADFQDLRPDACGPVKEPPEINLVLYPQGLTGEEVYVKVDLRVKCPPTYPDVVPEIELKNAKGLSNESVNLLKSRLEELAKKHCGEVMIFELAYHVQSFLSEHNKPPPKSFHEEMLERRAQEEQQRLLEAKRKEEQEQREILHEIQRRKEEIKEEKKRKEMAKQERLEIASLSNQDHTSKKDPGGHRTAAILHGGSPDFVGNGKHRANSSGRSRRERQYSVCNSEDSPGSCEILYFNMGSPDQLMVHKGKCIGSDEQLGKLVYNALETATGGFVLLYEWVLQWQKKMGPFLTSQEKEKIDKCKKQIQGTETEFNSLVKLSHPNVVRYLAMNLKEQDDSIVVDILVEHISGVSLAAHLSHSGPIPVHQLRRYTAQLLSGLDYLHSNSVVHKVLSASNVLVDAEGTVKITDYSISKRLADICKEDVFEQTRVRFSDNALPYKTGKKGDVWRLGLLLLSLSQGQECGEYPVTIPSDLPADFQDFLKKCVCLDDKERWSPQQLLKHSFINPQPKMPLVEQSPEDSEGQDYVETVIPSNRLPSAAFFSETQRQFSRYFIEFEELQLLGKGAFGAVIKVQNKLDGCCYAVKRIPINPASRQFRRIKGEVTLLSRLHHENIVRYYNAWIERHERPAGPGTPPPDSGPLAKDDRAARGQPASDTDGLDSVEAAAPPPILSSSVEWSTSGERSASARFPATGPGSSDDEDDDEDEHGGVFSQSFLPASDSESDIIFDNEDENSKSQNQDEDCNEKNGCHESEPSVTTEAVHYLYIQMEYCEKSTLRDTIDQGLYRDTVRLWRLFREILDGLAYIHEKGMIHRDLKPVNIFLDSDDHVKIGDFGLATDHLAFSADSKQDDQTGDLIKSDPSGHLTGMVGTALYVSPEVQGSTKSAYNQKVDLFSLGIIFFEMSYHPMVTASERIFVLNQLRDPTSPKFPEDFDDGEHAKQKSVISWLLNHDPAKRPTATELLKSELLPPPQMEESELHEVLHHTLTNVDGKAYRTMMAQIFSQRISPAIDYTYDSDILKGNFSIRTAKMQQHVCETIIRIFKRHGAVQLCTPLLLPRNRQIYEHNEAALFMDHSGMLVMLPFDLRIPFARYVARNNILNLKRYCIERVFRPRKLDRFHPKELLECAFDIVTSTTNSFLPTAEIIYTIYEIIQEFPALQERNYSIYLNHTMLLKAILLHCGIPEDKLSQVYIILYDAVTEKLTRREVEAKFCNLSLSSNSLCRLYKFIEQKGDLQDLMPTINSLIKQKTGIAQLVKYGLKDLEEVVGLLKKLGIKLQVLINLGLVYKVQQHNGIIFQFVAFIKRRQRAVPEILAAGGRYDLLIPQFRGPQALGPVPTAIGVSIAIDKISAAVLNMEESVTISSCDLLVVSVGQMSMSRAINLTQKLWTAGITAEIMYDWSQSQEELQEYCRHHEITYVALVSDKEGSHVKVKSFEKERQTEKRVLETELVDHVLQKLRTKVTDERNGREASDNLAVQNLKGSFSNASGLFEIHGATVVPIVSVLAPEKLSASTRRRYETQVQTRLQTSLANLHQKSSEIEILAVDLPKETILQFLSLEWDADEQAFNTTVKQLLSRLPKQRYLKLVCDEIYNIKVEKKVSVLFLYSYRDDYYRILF

With `CNC(=O)c1ncn2c(F)c(-c3c(F)ccc(NS(=O)(=O)c4cc(F)cnc4C)c3F)ncc12` [Compound 184, 6-[2,6-difluoro-3-(5-fluoro-2-methylpyridine-3-sulfonamido)phenyl]-5-fluoro-N-methylimidazo[1,5-a]pyrazine-1-carboxamide] as the compound, how does the IC50 read?
The IC50 was 50 to 500 nM.

For `CNC(=O)c1ncn2c1CC[C@H](c1c(F)ccc(NS(=O)(=O)c3cc(Cl)cnc3OC)c1F)C2` [Compound 27-1, (6R)-6-[3-(5-chloro-2-methoxypyridine-3-sulfonamido)-2,6-difluorophenyl]-N-methyl-5H,6H,7H,8H-imidazo[1,5-a]pyridine-1-carboxamide], which IC50 is on record?
The IC50 was 50 to 500 nM.

For `COc1ncc(Cl)cc1S(=O)(=O)Nc1ccc(F)c(-c2cn3cnc(C(=O)NCCN4CCCC4=O)c3cn2)c1F` [Compound 180, 6-[3-(5-chloro-2-methoxypyridine-3-sulfonamido)-2,6-difluorophenyl]-N-[2-(2-oxopyrrolidin-1-yl)ethyl]imidazo[1,5-a]pyrazine-1-carboxamide], which IC50 is on record?
Its IC50 is 50 to 500 nM.

same assay, conditions: GCN2 2 nM, 100 nM GFP-eIF2a, 150 μM ATP, TR-FRET

For `CNC(=O)c1ncn2cc(-c3c(F)ccc(NS(=O)(=O)c4cc(Cl)c[nH]c4=O)c3F)ncc12` [Compound 132, 6-(3-((5-chloro-2-oxo-1,2-dihydropyridine)-3-sulfonamido)-2,6-difluorophenyl)-N-methylimidazo[1,5-a]pyrazine-1-carboxamide], which IC50 is on record?
The IC50 was over 1000 nM.

How did the IC50 turn out when `COc1ncc(F)cc1S(=O)(=O)Nc1ccc(F)c(-c2cn3cnc(-c4nc5ccccc5[nH]4)c3cn2)c1F` [Compound 111, N-[3-[1-(1H-1,3-benzodiazol-2-yl)imidazo[1,5-a]pyrazin-6-yl]-2,4-difluorophenyl]-5-fluoro-2-methoxypyridine-3-sulfonamide] was run?
Its IC50 is under 50 nM.

`COc1ncc(F)cc1S(=O)(=O)Nc1ccc(F)c(-c2ccn3c(-c4ncc[nH]4)ncc3c2F)c1F` [Compound 47, N-[2,4-difluoro-3-[8-fluoro-3-(1H-imidazol-2-yl)imidazo[1,5-a]pyridin-7-yl]phenyl]-5-fluoro-2-methoxypyridine-3-sulfonamide] was tested. Which IC50 did it give?
Its IC50 is under 50 nM.

For `COc1ncc(C#N)cc1S(=O)(=O)Nc1ccc(F)c(-c2ccn3c(-c4ncc[nH]4)ncc3c2)c1F` [Compound 40, 5-cyano-N-[2,4-difluoro-3-[3-(1H-imidazol-2-yl)imidazo[1,5-a]pyridin-7-yl]phenyl]-2-methoxypyridine-3-sulfonamide], which IC50 is on record?
Its IC50 is under 50 nM.

Which IC50 does the source give for `COc1ncc(Cl)cc1S(=O)(=O)Nc1ccc(F)c(-c2ccc3c(-c4nc(C)c(C)[nH]4)ncn3c2)c1F` [Compound 143, 5-chloro-N-(3-(1-(4,5-dimethyl-1H-imidazol-2-yl)imidazo[1,5-a]pyridin-6-yl)-2,4-difluorophenyl)-2-methoxypyridine-3-sulfonamide] here?
Its IC50 is under 50 nM.

`Cc1ncc(F)cc1S(=O)(=O)Nc1ccc(F)c(-c2ccc3c(-n4cnnn4)ncn3c2)c1F` [Compound 76, N-[2,4-difluoro-3-[1-(1,2,3,4-tetrazol-1-yl)imidazo[1,5-a]pyridin-6-yl]phenyl]-5-fluoro-2-methylpyridine-3-sulfonamide] was tested. Which IC50 did it give?
The IC50 was under 50 nM.

With `CNC(=O)c1ncn2nc(-c3c(Cl)ccc(NS(=O)(=O)c4cc(Cl)cnc4C)c3F)ccc12` [Compound 138, 2-[6-chloro-3-(5-chloro-2-methylpyridine-3-sulfonamido)-2-fluorophenyl]-N-methylimidazo[1,5-b]pyridazine-5-carboxamide] as the compound, how does the IC50 read?
Its IC50 is under 50 nM.

With `COc1ncc(F)cc1S(=O)(=O)Nc1ccc(F)c(-c2ccc3c(-c4nnc(C)[nH]4)ncn3c2)c1F` [Compound 58, N-[2,4-difluoro-3-[1-(5-methyl-4H-1,2,4-triazol-3-yl)imidazo[1,5-a]pyridin-6-yl]phenyl]-5-fluoro-2-methoxypyridine-3-sulfonamide] as the compound, how does the IC50 read?
The IC50 was under 50 nM.

With `COc1ncc(Cl)cc1S(=O)(=O)Nc1ccc(F)c(-c2cn3cnc(C(=O)N[C@H]4CCN(C)C4)c3cn2)c1F` [Compound 173-2, (S)-6-(3-((5-chloro-2-methoxypyridine)-3-sulfonamido)-2,6-difluorophenyl)-N-(1-methylpyrrolidin-3-yl)imidazo[1,5-a]pyrazine-1-carboxamide] as the compound, how does the IC50 read?
The IC50 was under 50 nM.

`Cc1ncc(Cl)cc1S(=O)(=O)Nc1ccc(F)c(-c2cn3cnc(-c4ncc[nH]4)c3cn2)c1F` [Compound 83, 5-chloro-N-[2,4-difluoro-3-[1-(1H-imidazol-2-yl)imidazo[1,5-a]pyrazin-6-yl]phenyl]-2-methylpyridine-3-sulfonamide] was tested. Which IC50 did it give?
Its IC50 is under 50 nM.

`COc1ncc(F)cc1S(=O)(=O)Nc1ccc(F)c(-c2ccc3c(-c4ccno4)ncn3c2)c1F` [Compound 118, N-[2,4-difluoro-3-[1-(1,2-oxazol-5-yl)imidazo[1,5-a]pyridin-6-yl]phenyl]-5-fluoro-2-methoxypyridine-3-sulfonamide] was tested. Which IC50 did it give?
Its IC50 is under 50 nM.

With `COc1ncc(C#N)cc1S(=O)(=O)Nc1ccc(F)c(-c2ccc3c(-c4nc(C)c(C)[nH]4)ncn3c2)c1F` [Compound 126, 5-cyano-N-[3-[1-(4,5-dimethyl-1H-imidazol-2-yl)imidazo[1,5-a]pyridin-6-yl]-2,4-difluorophenyl]-2-methoxypyridine-3-sulfonamide] as the compound, how does the IC50 read?
The IC50 was under 50 nM.

Which IC50 does the source give for `CNC(=O)c1ncn2cc(-c3c(Cl)ccc(NS(=O)(=O)c4cc(Cl)cnc4OC)c3F)ccc12` [Compound 137, 6-[6-chloro-3-(5-chloro-2-methoxypyridine-3-sulfonamido)-2-fluorophenyl]-N-methylimidazo[1,5-a]pyridine-1-carboxamide] here?
Its IC50 is under 50 nM.

Which IC50 does the source give for `Cc1nnc(-c2ncn3cc(-c4c(F)ccc(NS(=O)(=O)c5cc(Cl)cnc5C)c4F)ccc23)[nH]1` [Compound 61, 5-chloro-N-[2,4-difluoro-3-[1-(5-methyl-4H-1,2,4-triazol-3-yl)imidazo[1,5-a]pyridin-6-yl]phenyl]-2-methylpyridine-3-sulfonamide] here?
The IC50 was under 50 nM.

`COc1ncc(F)cc1S(=O)(=O)Nc1ccc(F)c(-c2ccc3c(-c4nc5c([nH]4)CCCC5)ncn3c2)c1F` [Compound 148, N-(2,4-difluoro-3-(1-(4,5,6,7-tetrahydro-1H-benzo[d]imidazol-2-yl)imidazo[1,5-a]pyridin-6-yl)phenyl)-5-fluoro-2-methoxypyridine-3-sulfonamide] was tested. Which IC50 did it give?
Its IC50 is under 50 nM.

`CNC(=O)c1ncn2cc(-c3c(F)ccc(NS(=O)(=O)c4cc(Cl)cnc4OCc4ccccc4)c3F)ncc12` [Compound 183, 6-[3-[2-(benzyloxy)-5-chloropyridine-3-sulfonamido]-2,6-difluorophenyl]-N-methylimidazo[1,5-a]pyrazine-1-carboxamide] was tested. Which IC50 did it give?
The IC50 was over 1000 nM.

How did the IC50 turn out when `COc1ncc(Cl)cc1S(=O)(=O)Nc1ccc(F)c(-c2ccc3c(-c4ccn(C)n4)ncn3c2)c1F` [Compound 37, 5-chloro-N-[2,4-difluoro-3-[1-(1-methylpyrazol-3-yl)imidazo[1,5-a]pyridin-6-yl]phenyl]-2-methoxypyridine-3-sulfonamide] was run?
The IC50 was under 50 nM.

With `COc1ncc(Cl)cc1S(=O)(=O)Nc1ccc(F)c([C@H]2CCn3c(cnc3-c3ncc[nH]3)C2)c1F` [Compound 64-2, (S)—N-(3-(3-(1H-imidazol-2-yl)-5,6,7,8-tetrahydroimidazo[1,5-a]pyridin-7-yl)-2,4-difluorophenyl)-5-chloro-2-methoxypyridine-3-sulfonamide] as the compound, how does the IC50 read?
Its IC50 is under 50 nM.

With `COc1ncc(Cl)cc1S(=O)(=O)Nc1ccc(F)c(-c2ccc3c(-c4ncc[nH]4)ncn3n2)c1F` [Compound 85, 5-chloro-N-[2,4-difluoro-3-[5-(1H-imidazol-2-yl)imidazo[1,5-b]pyridazin-2-yl]phenyl]-2-methoxypyridine-3-sulfonamide] as the compound, how does the IC50 read?
Its IC50 is under 50 nM.
